Test results published in patent publication US10548898B2, “Quinazoline compounds” (Gilead Sciences, Inc., priority 2014, dated 2020).
Like-named read-outs stand apart in the source and are kept apart here.

How the values were obtained:
Format in all cases: cell-based
[1] = system: HIV-1 recombinant strain encoding reverse transcriptase mutation K103N; assay: Resistance profile against HIV-1 RT mutants in MT-2 cells, K103N; settings: ratio of mean EC50 mutant/WT virus
Procedure: (§1) Compounds were tested for antiviral activity against a panel of NNRTI resistant viruses. A panel of 8 clonal site-directed mutant viruses representing the major resistance development pathways against rilpivirine (“RPV”), efavirenz (“EFV”), and nevirapine (“NVP”), containing both single and double mutations within HIV-1 reverse transcriptase was employed. Further details and background can be found in Janssen et al. J. Med. Chem, 2005, 48, 1901-1909; Das et al., Proc. Nat. Acad. Sci., 2008, vol., 105, no. 5, 1466-1471; and Kuroda et al., Nature Chemistry, 2013, DOI: 10.1038/NCHEM. 1559. […] HIV-1 recombinant strains encoding reverse transcriptase mutations K103N, Y181C, Y188L, G190A, K103N/Y181C, L1001/Y181C, E138K or E138KIM 184V were constructed by site-directed mutagenesis. Wild-type and mutant viruses were prepared by transfecting infectious proviral HXB2-based cDNA clones into MT-2 cells and harvesting the cell supernatants. MT-2 cells were infected with wild-type and mutant HIV-1 strains at a multiplicity of infection (MOI) of 0.005 by gentle mixing for 3 hours at 37° C. and then added at a density of 16,667 cells per well in 50 μL complete RPMI cell culture media (containing 10% fetal bovine serum (FBS) and 10% penicillin-streptomycin) to 96-well plates containing 50 μL of a 3-fold serial dilution of test compounds in RPMI medium. After 5 days of incubation at 37° C. in a humidified incubator in the presence of 5% CO2. 100 μL of Cell Titer-Glo™ Reagent (Promega Biosciences, Inc., Madison, Wis.) was added to each well and the relative light units (RLU) measured on an Envision plate reader. […] The EC50 value was defined as the compound concentration inducing a 50% decrease in virus replication. Data analysis for the antiviral activity observed in MT-2 cells was performed using XL-Fit™ software (IDBS, Guildford, Surrey, UK) to calculate EC50 from an 8-point dose-response curve using the following equation:
(§2) [formula] where y=virus inhibition, x=drug concentration, M=maximum inhibition, H=minimum inhibition and n=Hill coefficient, EC50 values (mean±standard deviation) were calculated from at least three independent experiments performed in triplicate. The level of resistance was calculated as a ratio of the mean EC50 for each mutant/WT virus. Results are disclosed in FIG. 1 and in Tables 3 and 4 below.

[2] = target: T1, hERG channels (Homo sapiens, UniProt Q12809); assay: hERG assay, whole cell recordings in CHO cell line stably expressing hERG channels; settings: CHO cells, whole cell patch clamp; greater than values indicate the maximum achievable concentration in the assay
T1 construct: host or cells: CHO cell line stably expressing hERG
Procedure: AVIVA's CHO cell line, which stably expresses hERG channels, was used for the study. Cells were cultured in DMEM/F12 containing 10% FBS, 1% penicillin/streptomycin and 500 μg/ml G418. Before testing, cells were harvested using Accumax (Innovative Cell Technologies).
External Solution: 2 mM CaCl2; 2 mM MgCl2; 4 mM KCl; 150 mM NaCl; 10 mM Glucose; 10 mM HEPES; 305-315 mOsm; pH 7.4 (adjusted with 5M NaOH.)
Internal Solution: 140 mM KCl; 10 mM MgCl2; 6 mM EGTA; 5 mM HEPES-Na; 5 mM ATP-Mg; 295-305 mOsm; pH 7.25 (adjusted with 1M KOH).
Whole cell recordings were performed using PX 7000A (Axon Instruments) with AVIVA's SealChip™ technology. Cells were voltage clamped at a holding potential of −80 mV. The hERG current was then activated by a depolarizing step to −50 mV for 300 ms. This first step at −50 mV was used as a baseline for measuring peak amplitude of the tail current. Next, a voltage step to +20 mV was applied for 5 s to activate the channels. Finally, a step back to −50 mV for 5 s removed activation and the deactivating tail current was recorded.
All test articles were prepared from 10 mM DMSO stock solutions. Solutions were mixed by sonication for 20 min, followed by vigorous vortexing. Prior to testing, compounds were diluted to test concentrations in glass vials using External Solution. Dilutions were prepared no longer than 20 min prior to use.
After achieving whole cell configuration, cells were monitored for 90 s to assess stability and then washed with External Solution for 66 s. The voltage protocol was then applied to the cells every 12 s throughout the procedure. Only stable cells with recording parameters above threshold were allowed to enter the drug addition procedure.
External solution containing 0.1% DMSO (vehicle) was applied to the cells to establish a baseline. After allowing the current to stabilize for 3 to 10 min, test articles were applied. Test article solutions were added to cells in 4 separate additions. Cells were kept in test solution until effect of the test article reached steady state, to a maximum of 12 min. Next, 1 μM cisapride (positive control) was added. Finally, washout with External Solution was performed until the recovery current reached steady state.
Data analysis was performed using DataXpress (Axon Instruments), Clampfit (Axon Instruments) and Origin (OriginLab Corporation) software. The greater than values in Table 5 indicate the maximum achievable concentration in the assay (e.g., compounds achieving their solubility limit).

[3] = system: HIV-1 recombinant strain encoding reverse transcriptase mutation L100I/Y181C; assay: Resistance profile against HIV-1 RT mutants in MT-2 cells, L100I/Y181C; settings: ratio of mean EC50 mutant/WT virus
Procedure: as §1, §2

[4] = system: HIV-1 recombinant strain encoding reverse transcriptase mutation Y188L; assay: Resistance profile against HIV-1 RT mutants in MT-2 cells, Y188L; settings: ratio of mean EC50 mutant/WT virus
Procedure: as §1, §2

[5] = system: HIV-1 recombinant strain encoding reverse transcriptase mutation E138K/M184V; assay: Resistance profile against HIV-1 RT mutants in MT-2 cells, E138K/M184V; settings: ratio of mean EC50 mutant/WT virus
Procedure: Compounds were tested for antiviral activity against a panel of NNRTI resistant viruses. A panel of 8 clonal site-directed mutant viruses representing the major resistance development pathways against rilpivirine (“RPV”), efavirenz (“EFV”), and nevirapine (“NVP”), containing both single and double mutations within HIV-1 reverse transcriptase was employed. Further details and background can be found in Janssen et al. J. Med. Chem, 2005, 48, 1901-1909; Das et al., Proc. Nat. Acad. Sci., 2008, vol., 105, no. 5, 1466-1471; and Kuroda et al., Nature Chemistry, 2013, DOI: 10.1038/NCHEM. 1559. […] HIV-1 recombinant strains encoding reverse transcriptase mutations K103N, Y181C, Y188L, G190A, K103N/Y181C, L1001/Y181C, E138K or E138KIM 184V were constructed by site-directed mutagenesis. Wild-type and mutant viruses were prepared by transfecting infectious proviral HXB2-based cDNA clones into MT-2 cells and harvesting the cell supernatants. MT-2 cells were infected with wild-type and mutant HIV-1 strains at a multiplicity of infection (MOI) of 0.005 by gentle mixing for 3 hours at 37° C. and then added at a density of 16,667 cells per well in 50 μL complete RPMI cell culture media (containing 10% fetal bovine serum (FBS) and 10% penicillin-streptomycin) to 96-well plates containing 50 μL of a 3-fold serial dilution of test compounds in RPMI medium. After 5 days of incubation at 37° C. in a humidified incubator in the presence of 5% CO2. 100 μL of Cell Titer-Glo™ Reagent (Promega Biosciences, Inc., Madison, Wis.) was added to each well and the relative light units (RLU) measured on an Envision plate reader. […] The EC50 value was defined as the compound concentration inducing a 50% decrease in virus replication. […]
as §2, with “Results are disclosed in FIG. 1 and in Tables 3 and 4 below.” left out

[6] = system: HIV-1 HBX2 (wild type); assay: High throughput cytopathic effect assay in MT-4 cells, wild type HIV-1
Summary of the method: (§3)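 MT-4 cells infected 1 h at 37 °C at MOI 0.0005, then plated onto ten-point half-log compound dilutions and incubated 5 days. Cell viability read by CellTiter-Glo luminescence, normalized to AZT and DMSO controls as % CPE protection; EC50 from four-parameter fit.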

[7] = system: HIV-1 recombinant strain encoding reverse transcriptase mutation K103N/Y181C; assay: Resistance profile against HIV-1 RT mutants in MT-2 cells, K103N/Y181C; settings: ratio of mean EC50 mutant/WT virus
Procedure: as §1, §2

[8] = system: HIV-1 reverse transcriptase mutant K103N; assay: High throughput cytopathic effect assay in MT-4 cells, K103N mutant; settings: for EC50: Human immunodeficiency virus 1, MT4, 120 h, read-out: MT4 EC50 (nM) against K103N; for FC against mutant K103N: fold change of MT4 EC50 versus w.t. assay 2
Summary of the method: as §3

[9] = system: HIV-1 recombinant strain encoding reverse transcriptase mutation Y181C; assay: Resistance profile against HIV-1 RT mutants in MT-2 cells, Y181C; settings: ratio of mean EC50 mutant/WT virus
Procedure: as §1, §2

[10] = system: HIV-1 reverse transcriptase mutant Y181C; assay: High throughput cytopathic effect assay in MT-4 cells, Y181C mutant; settings: for EC50: Human immunodeficiency virus 1, MT4, 120 h, read-out: MT4 EC50 (nM) against Y181C; for FC against mutant Y181C: fold change of MT4 EC50 versus w.t. assay 2
Summary of the method: as §3

[11] = system: HIV-1 recombinant strain encoding reverse transcriptase mutation G190A; assay: Resistance profile against HIV-1 RT mutants in MT-2 cells, G190A; settings: ratio of mean EC50 mutant/WT virus
Procedure: as §1, §2

[12] = Human immunodeficiency virus 1, MT4, 120 h, MT-4 cells, 5 days, cytopathic effect, Cell TiterGlo, read-out: MT4 EC50 (nM) against w.t.
[13] = Human immunodeficiency virus 1, MT4, read-out: MT4 EC50 (nM) against w.t. assay 2

T1 sequence (Q12809 whole entry): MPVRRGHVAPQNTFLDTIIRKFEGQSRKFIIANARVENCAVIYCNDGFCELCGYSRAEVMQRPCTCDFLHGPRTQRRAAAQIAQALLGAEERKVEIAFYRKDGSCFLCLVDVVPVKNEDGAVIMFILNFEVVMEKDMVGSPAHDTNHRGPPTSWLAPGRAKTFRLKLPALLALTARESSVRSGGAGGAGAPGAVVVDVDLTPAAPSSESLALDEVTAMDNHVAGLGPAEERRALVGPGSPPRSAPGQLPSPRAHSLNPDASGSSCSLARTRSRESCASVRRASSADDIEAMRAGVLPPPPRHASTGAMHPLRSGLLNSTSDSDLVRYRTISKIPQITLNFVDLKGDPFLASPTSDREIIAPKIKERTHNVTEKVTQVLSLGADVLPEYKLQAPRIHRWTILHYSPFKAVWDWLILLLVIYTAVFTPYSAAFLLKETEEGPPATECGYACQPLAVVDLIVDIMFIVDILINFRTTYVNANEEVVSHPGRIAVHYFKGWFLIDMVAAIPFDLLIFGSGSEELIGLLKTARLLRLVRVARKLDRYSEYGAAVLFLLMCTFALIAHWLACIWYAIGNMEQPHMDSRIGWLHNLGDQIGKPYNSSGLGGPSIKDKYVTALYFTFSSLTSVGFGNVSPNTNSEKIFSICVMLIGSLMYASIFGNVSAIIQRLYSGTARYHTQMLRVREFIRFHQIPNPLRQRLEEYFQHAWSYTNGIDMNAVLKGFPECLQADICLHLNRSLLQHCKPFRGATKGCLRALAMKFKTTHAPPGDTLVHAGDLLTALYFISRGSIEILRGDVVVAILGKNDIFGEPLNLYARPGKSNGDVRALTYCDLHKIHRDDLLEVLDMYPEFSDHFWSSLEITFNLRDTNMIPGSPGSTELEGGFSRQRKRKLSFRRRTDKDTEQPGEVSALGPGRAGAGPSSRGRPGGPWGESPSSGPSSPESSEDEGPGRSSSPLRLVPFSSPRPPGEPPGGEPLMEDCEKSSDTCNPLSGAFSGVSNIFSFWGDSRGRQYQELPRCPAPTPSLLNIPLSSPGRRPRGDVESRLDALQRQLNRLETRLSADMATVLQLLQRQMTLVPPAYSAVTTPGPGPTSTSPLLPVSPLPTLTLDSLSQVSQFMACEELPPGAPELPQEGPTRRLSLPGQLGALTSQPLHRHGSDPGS

Structure (SMILES) | Biology resistance panel-low throughput fold change (FC) K103N [1] | hERG [2] | Biology resistance panel-low throughput fold change (FC) L100I/Y181C [3] | Biology resistance panel-low throughput fold change (FC) Y188L [4] | Biology resistance panel-low throughput fold change (FC) E138K/M184V [5] | EC50 [6, 12] | EC50 [6, 13] | Biology resistance panel-low throughput fold change (FC) K103N/Y181C [7] | EC50 [8] | FC against mutant K103N [8] | Biology resistance panel-low throughput fold change (FC) Y181C [9] | EC50 [10] | FC against mutant Y181C [10] | Biology resistance panel-low throughput fold change (FC) G190A [11]
Cc1cc(/C=C/C#N)cc(C)c1-c1cccc2c(=O)[nH]c(Nc3ccc(C#N)cn3)nc12 [Compound 34, (E)-6-((8-(4-(2-Cyanovinyl)-2,6-dimethylphenyl)-4-oxo-3,4-dihydroquinazolin-2-yl)amino)nicotinonitrile] | 1.4 | >3 µM | 1.7 | 18.7 | 4.2 | 2.4 nM | 3 nM | 12.4 | 3.2 nM | 1.0 | 3.4 | 11.3 nM | 3.7 | 
Cc1cc(/C=C/C#N)cc(C)c1Nc1ccnc(Nc2ccc(C#N)cc2)n1 [Rilpivirine, reference compound] | 1.0 | 0.5 µM | 18.1 | 22.8 | 3.0 | 0.9 nM | 1.3 nM | 7.7 | 1.5 nM | 1.2 | 4.6 | 3.8 nM | 3.1 | 0.8
Cc1cc(/C=C/C#N)cc(C)c1-c1cccc2c(N)nc(Nc3ccc(C#N)cc3)nc12 [Compound 2, (E)-4-((4-Amino-8-(4-(2-cyanovinyl)-2,6-dimethylphenyl)quinazolin-2-yl)amino)benzonitrile] | 0.9 | >1 µM | 1.6 | 10.0 | 5.0 | 3.7 nM | 3.6 nM | 4.1 | 4 nM | 1.1 | 4.0 | 10.9 nM | 3.0 | 1.6
O=C1Nc2ccc(Cl)cc2[C@@](C#CC2CC2)(C(F)(F)F)O1 [Efavirenz, reference compound] | 48.1 |  | >200 | 132.5 |  | 1.3 nM | 1.6 nM | 83.5 | 46.4 nM | 28.9 | 3.6 | 3.8 nM | 2.3 | 14.8
